In article PMC7782793, “Hydroxamic acid-modified peptide microarrays for profiling isozyme-selective interactions and inhibition of histone deacetylases” (Nature Communications, 2021):
Values joined by “and” are separate entries in the source; they are usually repeats but may differ in a detail not shown here. Equal entries are not always repeated. Marks after values point to notes of the source that are not given here. Non-standard residues stand in square brackets, D forms with d. Residues, ends and D or L forms follow the SMILES beside them. *: point of attachment. Asu = N[C@@H](CCCCCC(=O)O)C(=O)O; NHOH = ON*

Tests used:
HDAC3/NCoR2 [1] = target: T1, HDAC3/NCoR2 (Homo sapiens, UniProt O15379); experiment: HDAC inhibition assay (fluorogenic, Ac-Leu-Gly-Lys(Ac)-AMC); type: biochemical; details: for HDAC3 dose-response data (relative enzyme activity), Fig. 6 + S. Fig. 10: duplicate columns
T1 construct: HDAC3/NCoR2 (full length, C-terminal His tag, NCoR2 N-terminal GST tag); purchased BPS Bioscience 50003
T1 sequence (O15379 whole entry): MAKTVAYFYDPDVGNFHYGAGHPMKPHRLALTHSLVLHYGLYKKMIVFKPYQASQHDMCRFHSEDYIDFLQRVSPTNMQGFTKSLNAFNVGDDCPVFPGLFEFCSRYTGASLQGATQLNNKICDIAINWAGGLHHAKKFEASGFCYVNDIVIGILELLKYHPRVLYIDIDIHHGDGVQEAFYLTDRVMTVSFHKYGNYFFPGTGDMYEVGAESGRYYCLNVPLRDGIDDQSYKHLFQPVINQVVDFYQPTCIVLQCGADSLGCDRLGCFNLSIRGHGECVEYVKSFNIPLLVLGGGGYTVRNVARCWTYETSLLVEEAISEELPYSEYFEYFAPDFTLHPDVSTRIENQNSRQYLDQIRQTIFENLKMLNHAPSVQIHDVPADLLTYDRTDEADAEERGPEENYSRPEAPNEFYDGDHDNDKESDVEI
T1 sequence (Q9Y618 389-480 partner limits assumed): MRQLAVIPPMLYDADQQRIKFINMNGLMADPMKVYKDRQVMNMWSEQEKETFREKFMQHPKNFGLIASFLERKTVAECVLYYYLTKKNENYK

HDAC6 = target: T2, HDAC6 (Homo sapiens, UniProt Q9UBN7); experiment: as above; type: biochemical; details: HDAC6, replicates
T2 construct: HDAC6 (full length, BPS Bioscience, cat. #: 50056); purchased BPS Bioscience 50056
T2 sequence (Q9UBN7 1-1215): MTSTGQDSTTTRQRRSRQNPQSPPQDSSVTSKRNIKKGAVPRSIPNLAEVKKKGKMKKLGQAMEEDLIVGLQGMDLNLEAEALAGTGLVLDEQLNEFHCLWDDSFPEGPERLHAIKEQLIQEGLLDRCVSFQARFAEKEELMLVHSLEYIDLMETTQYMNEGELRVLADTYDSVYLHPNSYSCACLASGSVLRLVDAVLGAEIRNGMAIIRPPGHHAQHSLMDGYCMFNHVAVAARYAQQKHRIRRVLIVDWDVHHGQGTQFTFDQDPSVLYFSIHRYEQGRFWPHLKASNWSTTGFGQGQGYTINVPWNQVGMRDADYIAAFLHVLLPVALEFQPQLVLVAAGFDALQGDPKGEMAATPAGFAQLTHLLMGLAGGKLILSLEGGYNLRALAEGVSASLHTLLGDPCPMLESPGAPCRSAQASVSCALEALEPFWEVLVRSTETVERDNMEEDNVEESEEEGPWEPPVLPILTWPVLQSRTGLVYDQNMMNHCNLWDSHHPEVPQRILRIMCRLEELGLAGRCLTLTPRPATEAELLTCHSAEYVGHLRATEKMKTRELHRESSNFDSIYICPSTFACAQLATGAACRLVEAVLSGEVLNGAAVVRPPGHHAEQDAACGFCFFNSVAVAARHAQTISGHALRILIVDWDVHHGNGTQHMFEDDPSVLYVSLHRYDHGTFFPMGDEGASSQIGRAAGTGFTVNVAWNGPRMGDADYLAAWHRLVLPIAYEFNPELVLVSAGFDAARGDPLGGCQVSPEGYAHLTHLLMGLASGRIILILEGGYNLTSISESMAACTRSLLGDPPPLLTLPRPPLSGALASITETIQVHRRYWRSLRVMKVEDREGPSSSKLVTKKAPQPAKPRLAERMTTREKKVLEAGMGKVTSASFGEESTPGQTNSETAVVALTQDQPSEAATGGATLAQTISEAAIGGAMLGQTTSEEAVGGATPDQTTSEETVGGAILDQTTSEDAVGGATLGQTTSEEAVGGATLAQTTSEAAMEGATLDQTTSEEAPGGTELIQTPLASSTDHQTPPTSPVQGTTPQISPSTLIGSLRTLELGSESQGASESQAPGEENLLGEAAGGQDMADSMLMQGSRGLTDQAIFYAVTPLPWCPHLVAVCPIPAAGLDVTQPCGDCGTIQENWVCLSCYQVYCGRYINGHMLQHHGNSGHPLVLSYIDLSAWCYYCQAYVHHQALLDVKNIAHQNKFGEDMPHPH

HDAC3/NCoR2 [2] = target: T1, HDAC3/NCoR2; experiment: Recombinant HDAC µSPOT microarray binding assay
HDAC1 [3] = target: T3, HDAC1 (Homo sapiens, UniProt Q13547); experiment: HDAC inhibition assay (fluorogenic, Ac-Leu-Gly-Lys(Ac)-AMC); type: biochemical; details: for HDAC1 dose-response data (relative enzyme activity), Fig. 6 + S. Fig. 10: duplicate columns
T3 construct: HDAC1 (full length, C-terminal His tag, C-terminal FLAG tag, BPS Bioscience, cat. #: 50051); FLAG (C); purchased BPS Bioscience 50051
T3 sequence (Q13547 whole entry): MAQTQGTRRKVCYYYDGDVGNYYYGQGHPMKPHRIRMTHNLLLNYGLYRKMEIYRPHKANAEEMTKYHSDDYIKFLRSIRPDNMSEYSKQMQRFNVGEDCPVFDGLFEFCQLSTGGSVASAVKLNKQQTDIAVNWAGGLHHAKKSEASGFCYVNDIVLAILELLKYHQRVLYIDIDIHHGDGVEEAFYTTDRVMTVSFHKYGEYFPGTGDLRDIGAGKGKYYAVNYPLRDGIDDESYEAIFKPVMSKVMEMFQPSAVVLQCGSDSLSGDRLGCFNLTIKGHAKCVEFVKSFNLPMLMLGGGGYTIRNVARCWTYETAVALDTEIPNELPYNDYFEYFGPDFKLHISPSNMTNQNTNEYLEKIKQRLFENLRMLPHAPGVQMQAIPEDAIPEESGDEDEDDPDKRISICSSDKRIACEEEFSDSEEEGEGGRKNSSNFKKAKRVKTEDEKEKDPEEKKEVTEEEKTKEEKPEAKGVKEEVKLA

HDAC1 [4] = target: T3, HDAC1; experiment: Recombinant HDAC µSPOT microarray binding assay
HDAC2 = target: T4, HDAC2 (Homo sapiens, UniProt Q92769); experiment: HDAC inhibition assay (fluorogenic, Ac-Leu-Gly-Lys(Ac)-AMC); type: biochemical; details: for HDAC2 dose-response data (relative enzyme activity), Fig. 6 + S. Fig. 10: duplicate columns
T4 construct: HDAC2 (full length, C-terminal His tag, BPS Bioscience, cat. #: 50002); purchased BPS Bioscience 50002
T4 sequence (Q92769 whole entry): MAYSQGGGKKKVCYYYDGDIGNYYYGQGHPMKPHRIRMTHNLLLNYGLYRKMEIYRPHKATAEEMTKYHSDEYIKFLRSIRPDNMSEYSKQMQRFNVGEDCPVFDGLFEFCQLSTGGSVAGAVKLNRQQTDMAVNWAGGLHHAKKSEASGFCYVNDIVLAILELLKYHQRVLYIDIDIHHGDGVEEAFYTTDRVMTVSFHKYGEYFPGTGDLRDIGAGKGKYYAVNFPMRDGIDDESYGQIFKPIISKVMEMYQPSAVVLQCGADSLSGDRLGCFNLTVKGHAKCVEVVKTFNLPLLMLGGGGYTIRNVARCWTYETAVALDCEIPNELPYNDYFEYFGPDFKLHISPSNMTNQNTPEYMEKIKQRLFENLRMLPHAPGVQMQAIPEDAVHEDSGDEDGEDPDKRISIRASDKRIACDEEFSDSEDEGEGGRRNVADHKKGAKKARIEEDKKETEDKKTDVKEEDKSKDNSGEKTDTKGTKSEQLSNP

HDAC8 = target: T5, HDAC8 (Homo sapiens, UniProt Q9BY41); experiment: HDAC inhibition assay (fluorogenic, Ac-Leu-Gly-Lys(Tfa)-AMC); type: biochemical; details: for HDAC8 dose-response data (relative enzyme activity, replicate values), Fig. 6 + S. Fig. 10: two replicate columns per inhibitor; for HDAC8 dose-response data (relative enzyme activity), Fig. 6 + S. Fig. 10: duplicate columns
T5 construct: HDAC8 (full length, C-terminal His tag, BPS Bioscience, cat. #: 50008); purchased BPS Bioscience 50008
T5 sequence (Q9BY41 1-377): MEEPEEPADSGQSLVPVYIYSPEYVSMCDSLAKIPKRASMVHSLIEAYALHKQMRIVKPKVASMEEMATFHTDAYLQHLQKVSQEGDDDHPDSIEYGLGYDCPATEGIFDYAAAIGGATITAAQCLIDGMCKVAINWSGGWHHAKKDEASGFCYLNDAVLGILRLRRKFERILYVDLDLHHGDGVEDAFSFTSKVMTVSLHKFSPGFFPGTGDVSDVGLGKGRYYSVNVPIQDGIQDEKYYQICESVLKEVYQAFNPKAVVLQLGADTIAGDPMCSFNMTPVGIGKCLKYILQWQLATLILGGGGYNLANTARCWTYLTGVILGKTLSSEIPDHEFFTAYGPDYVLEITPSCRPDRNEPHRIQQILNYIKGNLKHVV

[5] = log[inhibitor(M)] -10,5850266520292*, whole line marked with asterisks

CC(=O)N[C@@H](C)C(=O)N[C@@H](CCCNC(=N)N)C(=O)N[C@@H](CCCCN)C(=O)N[C@@H](CO)C(=O)N[C@H](C(=O)NCC(=O)NCC(=O)N[C@@H](CCCCN)C(=O)N[C@@H](C)C(=O)N1CCC[C@H]1C(=O)N[C@@H](CCCNC(=N)N)C(=O)N[C@@H](CCCCCC(=O)NO)C(=O)N[C@@H](CCC(N)=O)C(=O)N[C@@H](CC(C)C)C(=O)N[C@@H](C)C(=O)N[C@H](C(=O)N[C@@H](Cc1c[nH]c2ccccc12)C(N)=O)[C@@H](C)O)[C@@H](C)O [13a] (Ac-ARKSTGGKAPR[Asu](NHOH)QLATW-NH2)
Ki (HDAC3/NCoR2 [1]): 2.14 ± 0.02 nM | HDAC3 dose-response data (relative enzyme activity), Fig. 6 + S. Fig. 10 (HDAC3/NCoR2 [1]; log[inhibitor(M)] -4.30103): 0.9488 and 1.386 | HDAC3 dose-response data (relative enzyme activity), Fig. 6 + S. Fig. 10 (HDAC3/NCoR2 [1]; log[inhibitor(M)] -5): 3.154 and 2.6883 | HDAC3 dose-response data (relative enzyme activity), Fig. 6 + S. Fig. 10 (HDAC3/NCoR2 [1]; log[inhibitor(M)] -5.69897): 8.657 and 8.271 | HDAC3 dose-response data (relative enzyme activity), Fig. 6 + S. Fig. 10 (HDAC3/NCoR2 [1]; log[inhibitor(M)] -6.39794): 15.6479 and 15.4413 | HDAC3 dose-response data (relative enzyme activity), Fig. 6 + S. Fig. 10 (HDAC3/NCoR2 [1]; log[inhibitor(M)] -7.09691): 23.7196 and 23.3659 | HDAC3 dose-response data (relative enzyme activity), Fig. 6 + S. Fig. 10 (HDAC3/NCoR2 [1]; log[inhibitor(M)] -7.79588): 41.0048 and 43.3286 | HDAC3 dose-response data (relative enzyme activity), Fig. 6 + S. Fig. 10 (HDAC3/NCoR2 [1]; log[inhibitor(M)] -8.49485): 70.4254 and 74.0708 | HDAC3 dose-response data (relative enzyme activity), Fig. 6 + S. Fig. 10 (HDAC3/NCoR2 [1]; log[inhibitor(M)] -9.19382): 90.1455 and 92.6434 | HDAC3 dose-response data (relative enzyme activity), Fig. 6 + S. Fig. 10 (HDAC3/NCoR2 [1]; log[inhibitor(M)] -9.89279): 95.7935 and 97.884 | HDAC3 dose-response data (relative enzyme activity), Fig. 6 + S. Fig. 10 (HDAC3/NCoR2 [1]; [5]): 98,4914638* and 97,1472426* | selectivity for HDAC3 vs. HDACs 1 and 2 (HDAC3/NCoR2 [1]; resynthesized peptides, from Ki): > 8 fold | residual enzymatic activity relative to control wells (HDAC6; log[inhibitor(M)] -4.30103): -1.734 and 1.049 | residual enzymatic activity relative to control wells (HDAC6; log[inhibitor(M)] -5): -1.228 and 1.2154 | residual enzymatic activity relative to control wells (HDAC6; log[inhibitor(M)] -5.69897): 0.01806 and 2.993 | residual enzymatic activity relative to control wells (HDAC6; log[inhibitor(M)] -6.39794): 4.479 and 8.186 | residual enzymatic activity relative to control wells (HDAC6; log[inhibitor(M)] -7.09691): 18.6761 and 22.7019 | residual enzymatic activity relative to control wells (HDAC6; log[inhibitor(M)] -7.79588): 46.5457 and 51.1177 | residual enzymatic activity relative to control wells (HDAC6; log[inhibitor(M)] -8.49485): 65.89 and 75.8407 | residual enzymatic activity relative to control wells (HDAC6; log[inhibitor(M)] -9.19382): 72.6813 and 83.6344 | residual enzymatic activity relative to control wells (HDAC6; log[inhibitor(M)] -9.89279): 83.1572 and 99.4226 | residual enzymatic activity relative to control wells (HDAC6; log[inhibitor(M)] -10.585): 85.7762 and 94.8721 | EC50 (HDAC3/NCoR2 [2]): 4.17 nM | Ki (HDAC1 [3]): 17.9 ± 0.4 nM | HDAC1 dose-response data (relative enzyme activity), Fig. 6 + S. Fig. 10 (HDAC1 [3]; log[inhibitor(M)] -5): 5.502 and 6.317 | HDAC1 dose-response data (relative enzyme activity), Fig. 6 + S. Fig. 10 (HDAC1 [3]; log[inhibitor(M)] -5.69897): 16.4811 and 18.8712 | HDAC1 dose-response data (relative enzyme activity), Fig. 6 + S. Fig. 10 (HDAC1 [3]; log[inhibitor(M)] -6.39794): 32.4053 and 35.9654 | HDAC1 dose-response data (relative enzyme activity), Fig. 6 + S. Fig. 10 (HDAC1 [3]; log[inhibitor(M)] -7.09691): 44.2666 and 47.9606 | HDAC1 dose-response data (relative enzyme activity), Fig. 6 + S. Fig. 10 (HDAC1 [3]; log[inhibitor(M)] -7.79588): 60.5299 and 62.3252 | HDAC1 dose-response data (relative enzyme activity), Fig. 6 + S. Fig. 10 (HDAC1 [3]; log[inhibitor(M)] -8.49485): 80.9321 and 81.9464 | HDAC1 dose-response data (relative enzyme activity), Fig. 6 + S. Fig. 10 (HDAC1 [3]; log[inhibitor(M)] -9.19382): 95.5469 and 95.3965 | HDAC1 dose-response data (relative enzyme activity), Fig. 6 + S. Fig. 10 (HDAC1 [3]; log[inhibitor(M)] -9.89279): 98.1308 and 82.1941 | HDAC1 dose-response data (relative enzyme activity), Fig. 6 + S. Fig. 10 (HDAC1 [3]; [5]): 98,3704548* and 94,2568861* | EC50 (HDAC1 [4]): > 25.1 nM | HDAC2 dose-response data (relative enzyme activity), Fig. 6 + S. Fig. 10 (HDAC2; log[inhibitor(M)] -5): 9.3053 and 9.139 | HDAC2 dose-response data (relative enzyme activity), Fig. 6 + S. Fig. 10 (HDAC2; log[inhibitor(M)] -5.69897): 27.8438 and 26.8455 | HDAC2 dose-response data (relative enzyme activity), Fig. 6 + S. Fig. 10 (HDAC2; log[inhibitor(M)] -7.79588): 88.6532 and 82.3131 | HDAC2 dose-response data (relative enzyme activity), Fig. 6 + S. Fig. 10 (HDAC2; [5]): 104,855804* and 98,2337504* | Ki (HDAC2; resynthesized peptide in solution, Cheng-Prusoff, n = 2): 60 ± 1 nM | Ki (HDAC8): 5.1 ± 0.03 nM | HDAC8 dose-response data (relative enzyme activity, replicate values), Fig. 6 + S. Fig. 10 (HDAC8; Inhibitor conc [M] -8.49485 (log)): 71.9184 and 69.3811 | HDAC8 dose-response data (relative enzyme activity, replicate values), Fig. 6 + S. Fig. 10 (HDAC8; Inhibitor conc [M] -9.19382 (log)): 90.9342 and 89.4061 | HDAC8 dose-response data (relative enzyme activity, replicate values), Fig. 6 + S. Fig. 10 (HDAC8; Inhibitor conc [M] given as -7.09691 (log)): 21.0963 and 19.8616 | HDAC8 dose-response data (relative enzyme activity, replicate values), Fig. 6 + S. Fig. 10 (HDAC8; Inhibitor conc [M] given as -7.79588 (log)): 40.3806 and 38.3863 | HDAC8 dose-response data (relative enzyme activity, replicate values), Fig. 6 + S. Fig. 10 (HDAC8; Inhibitor conc [M] given as -9.89279 (log)): 99.1075 and 97.7 | HDAC8 dose-response data (relative enzyme activity, replicate values), Fig. 6 + S. Fig. 10 (HDAC8; Inhibitor conc [M] given as -10.585 (log)): 102.311 and 100.47 | HDAC8 dose-response data (relative enzyme activity), Fig. 6 + S. Fig. 10 (HDAC8; Inhibitor conc [M] -4.30103): 1.362 and 1.423 | HDAC8 dose-response data (relative enzyme activity), Fig. 6 + S. Fig. 10 (HDAC8; Inhibitor conc [M] -5): 4.393 and 4.0005 | HDAC8 dose-response data (relative enzyme activity), Fig. 6 + S. Fig. 10 (HDAC8; Inhibitor conc [M] -5.69897): 9.7232 and 9.03 | HDAC8 dose-response data (relative enzyme activity), Fig. 6 + S. Fig. 10 (HDAC8; Inhibitor conc [M] -6.39794): 13.9289 and 13.185
